# Source: article PMC8158513, “Bio-Distribution and Pharmacokinetics of Topically Administered γ-Cyclodextrin Based Eye Drops in Rabbits” (Pharmaceuticals, 2021)
# What was measured:
# [1] = Pre-formulation studies (γCD complexation, physicochemical parameters)
# Method: Pre-formulation studies with different candesartan (0.1–0.2%) and irbesartan (1.0–2.0%) concentrations were performed to find the optimal drug concentration for the animal experiments.
# [2] = Blood-plasma PK after topical eye drop administration; settings: for concentration at 6 h: Plasma concentration at 6 h
# Method: (§1) A total number of 59 rabbits were included in this part of the study. All rabbits were consecutively assigned to one of the two study groups. […] Group 2 animals were dosed with 0.15% candesartan eye drops, while 23 rabbits received a single dose and 5 rabbits received multiple doses of the eye drops. Single dose rabbits of both groups were additionally randomized to one of five euthanasia time points: 0.5 h ± 5 min, 1.5 h ± 5 min, 3 h ± 10 min, 6 h ± 15 min or 12 h ± 30 min after instillation. In all animals, 35 μL of the study drug were instilled in the conjunctival sac of the right eye with a calibrated pipette using single-use dispensers. Single dose animals were instilled only once while multiple dose animals were instilled twice daily for a total of 5 days. In all animals only the right eye was treated. To assess drug concentrations, eyes were enucleated at the end of the study period. Before enucleation, rabbits were euthanized in deep anesthesia (ketamine 60 mg/kg, xylazine 16 mg/kg, s.c.) by an intravenous over-dose of pentobarbitone sodium (300 mg/kg i.v.) and enucleation was performed immediately after euthanasia. Single dose animals were enucleated at one of the five specified time-points. Multiple dose animals were euthanized 1 h ± 30 min after the last drug administration. From each animal both eyes were enucleated and stored at −80 °C. For separation of the different ocular tissues, the eyeball was removed from −80 °C storage and corneal tissue, aqueous humor, vitreous humor and retinal/choroidal tissue were dissected. The tissues were collected separately in individual tubes, which were weighed and then stored at −80 °C.
# A venous blood sample of 2 mL was collected from the saphenous vein before the (first) drug administration and prior to euthanasia to determine systemic drug exposure at baseline and after drug administration. The blood was centrifuged for 10 min at a temperature of 10 °C and a speed of 3000 rpm. The resulting supernatant was separated and stored in a tube at −80 °C until further processing.
# (§2) Both, the eye-tissue and plasma samples were shipped to Nucro-Technics (Nucro-Technics, 2000 Ellesmere Road, Unit #16, Scarborough, ON, Canada) for quantitative analysis. For this purpose, a new liquid chromatography/tandem mass spectrometry method for simultaneous quantification of candesartan and irbesartan in rabbit eye tissues including cornea, aqueous humor, vitreous body and retina was developed. The exact method and validation are described in detail elsewhere.
# (§3) This study was designed to assess pharmacokinetics and local tolerability, no formal sample size calculation has been performed. Descriptive statistics was used for all quantitative data to describe drug concentrations after the single and multiple dosing in the different tissues. […] For pharmacokinetic calculations Phoenix WinNonlin 8.1 (Certara, Princeton, NJ, USA) was used, and the statistical analysis was done using CSS Statistica 6.0 (Tulsa, OK, USA).
# (§4) To facilitate calculation of the PK parameters, a plausibility check was performed and values below the lower limit of quantification (BLOQ; plasma: <0.05 ng/mL; tissue: <5 ng/g (irbesartan), <2 ng/g (candesartan)) were set to 0. […] All baseline plasma sample values were set to zero.
# [3] = Multiple-dose ocular bio-distribution (twice daily for 5 days, tissues 1 h after last dose); settings: New Zealand White, rabbit, topical, 35 µL
# Method: as §1, with “Single dose animals were enucleated at one of the five specified time-points. Multiple dose animals were euthanized 1 h ± 30 min after the last drug administration. From each animal both eyes were enucleated and stored at −80 °C. For separation of the different ocular tissues, the eyeball was removed from −80 °C storage and corneal tissue, aqueous humor, vitreous humor and retinal/choroidal tissue were dissected. The tissues were collected separately in individual tubes, which were weighed and then stored at −80 °C.” left out
# as §2, with “The exact method and validation are described in detail elsewhere.” left out
# This study was designed to assess pharmacokinetics and local tolerability, no formal sample size calculation has been performed. Descriptive statistics was used for all quantitative data to describe drug concentrations after the single and multiple dosing in the different tissues. […]
# To facilitate calculation of the PK parameters, a plausibility check was performed and values below the lower limit of quantification (BLOQ; plasma: <0.05 ng/mL; tissue: <5 ng/g (irbesartan), <2 ng/g (candesartan)) were set to 0. […]
# [4] = Single-dose ocular bio-distribution and pharmacokinetics of topical γCD based eye drops (LC-MS/MS of ocular tissues); settings: for Cmax / Tmax: topical or ocular
# Method: as §1, §2, §3, §4
# [5] = target: angiotensin II receptor (AT1 subtype); settings: cited from earlier work
# [6] = New Zealand White, rabbit, plasma, topical or ocular, 35 µL
# [7] = New Zealand White, rabbit, in vivo, topical or ocular
# [8] = New Zealand White, rabbit, in vivo
smiles,measurement,setting,value
CCOc1nc2cccc(C(=O)O)c2n1Cc1ccc(-c2ccccc2-c2nnn[nH]2)cc1 [candesartan],Complexing efficiency of the γCD complex,[1]; compared with irbesartan,lower
same,Cmax,[2]; [6],4.32 ± 1.04 ng/mL
same,Tmax,[2]; [6],30 min
same,half-life,[2]; [6],584 min
same,concentration at 1 h after last dose,"[2]; New Zealand White, rabbit, plasma, topical, 35 µL, Mean plasma levels (Cmean) after the last dose, multiple doses twice daily for 5 days",4.78 ± 1.48 ng/mL
same,Plasma AUC,"[2]; single topical administration, AUC 0 h-12 h",8.75 (ng/mL)*h
same,concentration at 1 h after last dose,"[3]; retinal tissue, Retinal tissue Cmean in molar units, multiple dose, assuming molar weight 428.54 g/mol irbesartan, 440.45 g/mol candesartan",82 nM
same,concentration at 1 h after last dose,"[3]; retinal/choroidal tissue, treated study eye, Cmean retinal tissue (RT), SE, multiple doses twice daily 5 days, 1 h ± 30 min after last dose, study eye, mean ± SD",36 ± 10 ng/g
same,concentration at 1 h after last dose,"[3]; vitreous humor, treated study eye, Cmean vitreous humor (VH), SE, multiple doses, 1 h after last dose, study eye",< 2 ng/g
same,Cmax,"[4]; New Zealand White, rabbit, aqueous humor, treated study eye, 35 µL, Cmax SE, aqueous humor (AH), single dose, study eye, mean ± SD, also published separately [20]",30 ± 14 ng/g
same,Tmax,"[4]; New Zealand White, rabbit, aqueous humor, treated study eye, 35 µL, Tmax SE, aqueous humor (AH), single dose, study eye, also published separately [20]",180 min
same,Cmax,"[4]; New Zealand White, rabbit, aqueous humor, untreated control eye, 35 µL, Cmax CE, aqueous humor (AH), single dose, control eye, also published separately [20]",< 2 ng/g
same,Cmax,"[4]; New Zealand White, rabbit, corneal tissue, treated study eye, 35 µL, Cmax SE, corneal tissue (CT), single dose, study eye, mean ± SD, also published separately [20]",3500 ± 801 ng/g
same,Tmax,"[4]; New Zealand White, rabbit, corneal tissue, treated study eye, 35 µL, Tmax SE, corneal tissue (CT), single dose, study eye, also published separately [20]",90 min
same,Cmax,"[4]; New Zealand White, rabbit, corneal tissue, untreated control eye, 35 µL, Cmax CE, corneal tissue (CT), single dose, control eye, mean ± SD, also published separately [20]",2 ± 4 ng/g
same,Tmax,"[4]; New Zealand White, rabbit, corneal tissue, untreated control eye, 35 µL, Tmax CE, corneal tissue (CT), single dose, control eye, also published separately [20]",30 min
same,Cmax,"[4]; New Zealand White, rabbit, retinal tissue, 35 µL, Retinal tissue single dose Cmax in molar units, single dose, assuming molar weight 428.54 g/mol irbesartan, 440.45 g/mol candesartan",144 nM
same,Cmax,"[4]; New Zealand White, rabbit, retinal/choroidal tissue, treated study eye, 35 µL, Cmax SE, retinal(choroidal) tissue (RT), single dose 35 μL topical, mean ± SD",63 ± 39 ng/g
same,Tmax,"[4]; New Zealand White, rabbit, retinal/choroidal tissue, treated study eye, 35 µL, Tmax SE, retinal tissue (RT), single dose, study eye",≤ 30 min
same,half-life,"[4]; New Zealand White, rabbit, retinal/choroidal tissue, treated study eye, topical, 35 µL",323 min
same,Cmax,"[4]; New Zealand White, rabbit, retinal/choroidal tissue, untreated control eye, 35 µL, Cmax CE, retinal tissue (RT), single dose, mean ± SD",< 2 ng/g
same,Tmax,"[4]; New Zealand White, rabbit, retinal/choroidal tissue, untreated control eye, 35 µL, Tmax CE, retinal tissue (RT), single dose, control eye",30 min
same,Cmax,"[4]; New Zealand White, rabbit, vitreous humor, treated study eye, 35 µL, Cmax SE, vitreous humor (VH), single dose, study eye, mean ± SD",< 2 ng/g
same,Tmax,"[4]; New Zealand White, rabbit, vitreous humor, treated study eye, 35 µL, Tmax SE, vitreous humor (VH), single dose, study eye",30 min
same,Cmax,"[4]; New Zealand White, rabbit, vitreous humor, untreated control eye, 35 µL, Cmax CE, vitreous humor (VH), single dose, control eye",< 2 ng/g
same,"Cmax CE, vitreous humor (VH)","[4]; single dose, control eye",below the respective lower quantification limit
same,Time of maximum retinal drug concentration after single administration,"[4]; single dose, retina",30 min
same,Retinal tissue AUC,"[4]; single dose, study eye, AUC 0 h-12 h",210 ng·h/g
same,"Cmax SE, vitreous humor (VH)","[4]; single dose, study eye, mean ± SD",<2 ng/g
same,IC50,[5],0.4 nM
CCCCC1=NC2(CCCC2)C(=O)N1Cc1ccc(-c2ccccc2-c2nnn[nH]2)cc1 [irbesartan],Affinity for the γCD cavity,"[1]; among telmisartan, olmesartan, irbesartan and candesartan",highest affinity
same,concentration at 6 h,"[2]; New Zealand White, rabbit, in vivo, mean of the other concentrations (outlier excluded)",1.16 ng/mL
same,concentration at 6 h,"[2]; New Zealand White, rabbit, in vivo, single value defined as outlier",65.2 ng/mL
same,Cmax,[2]; [7],5.64 ± 4.08 ng/mL
same,Tmax,[2]; [7],30 min
same,half-life,[2]; [7],1060 min
same,Plasma AUC,"[2]; rabbit, in vivo, topical or ocular",17.64 (ng/mL)*h
same,Retinal tissue AUC,[4]; [8],941 ng·h/g
same,Retinal tissue AUC relative to the corresponding candesartan AUC,[4]; [8],around 4.5 times
same,Time of maximum retinal drug concentration after single administration,[4]; [8],30 min
same,concentration at 0.5 h,[4]; [8],14 ± 16 ng/g
same,half-life,[4]; [8],199 min
same,Cmax,"[4]; New Zealand White, rabbit, in vivo, Cmax CE, aqueous humor (AH)",< 5 ng/g
same,Cmax,"[4]; New Zealand White, rabbit, in vivo, Cmax CE, corneal tissue (CT)",49 ± 85 ng/g
same,Cmax,"[4]; New Zealand White, rabbit, in vivo, Cmax CE, retinal tissue (RT)",23 ± 34 ng/g
same,Cmax,"[4]; New Zealand White, rabbit, in vivo, Cmax CE, vitreous humor (VH)",< 5 ng/g
same,Cmax,"[4]; New Zealand White, rabbit, in vivo, Cmax SE, aqueous humor (AH)",121 ± 69 ng/g
same,Cmax,"[4]; New Zealand White, rabbit, in vivo, Cmax SE, corneal tissue (CT)",3660 ± 988 ng/g
same,Cmax,"[4]; New Zealand White, rabbit, in vivo, Cmax SE, retinal(choroidal) tissue (RT)",251 ± 142 ng/g
same,Cmax,"[4]; New Zealand White, rabbit, in vivo, Cmax SE, vitreous humor (VH)",14 ± 16 ng/g
same,Tmax,"[4]; New Zealand White, rabbit, in vivo, Tmax CE, aqueous humor (AH)",30 min
same,Tmax,"[4]; New Zealand White, rabbit, in vivo, Tmax CE, corneal tissue (CT)",90 min
same,Tmax,"[4]; New Zealand White, rabbit, in vivo, Tmax CE, retinal tissue (RT)",30 min
same,Tmax,"[4]; New Zealand White, rabbit, in vivo, Tmax CE, vitreous humor (VH)",30 min
same,Tmax,"[4]; New Zealand White, rabbit, in vivo, Tmax SE, aqueous humor (AH)",180 min
same,Tmax,"[4]; New Zealand White, rabbit, in vivo, Tmax SE, corneal tissue (CT)",90 min
same,Tmax,"[4]; New Zealand White, rabbit, in vivo, Tmax SE, retinal tissue (RT)",≤ 30 min
same,Tmax,"[4]; New Zealand White, rabbit, in vivo, Tmax SE, vitreous humor (VH)",30 min
same,"Cmax CE, vitreous humor (VH)","[4]; rabbit, in vivo",below the respective lower quantification limit
same,IC50,[5],1.3 nM
